Assay results published in patent publication US12076304B2, “Compositions comprising 15-HEPE and methods of treating or preventing hematologic disorders, and/or related diseases” (priority 2020, dated 2024).

Key:
NAFLD patients [1] = experiment: Phase IIa study in NAFLD patients: hepatic fat by CAP; assay type: in vivo, human; settings: 16 weeks
Experimental: (§1) The study was planned to include 96 evaluable patients with 32 patients randomized per treatment group.
Liver stiffness and CAP: Liver stiffness and CAP were assessed using transient elastography (e.g., FibroScan® 502 Touch model or equivalent). Patients were fasted and scanned at the same time of the day, if possible, for baseline (Week 0) and Visit 10 (Week 16). For this assessment the following conditions were met: patients were lying in dorsal decubitus position with the right arm in maximal abduction behind the head, in a similar position to that used for liver biopsy (LB); the tip of the transducer was placed on the skin between the ribs over the right lobe of the liver (the physician took the measurements with the probe placed in the intercostal space); during the FibroScan® examination the choice of M+ or XL+ probe was determined by the Automatic Probe Selection tool (APS) (If, the APS tool advises to use the “XL+probe” or “switch” continuously between “M+ and XL+ probe”, only the XL+ probe was used); and the operator, assisted by an ultrasonic time motion image, located a portion of the liver which is free of large vascular structures (the depth of measurement was between 35-75 mm for the XL+ probe and 25-65 mm for the M+ probe and the explored volume will be 3 cm^3). […] The final stiffness and CAP values was recorded as median values of valid measurements.

NAFLD patients [2] = experiment: Phase IIa study in NAFLD patients: adverse events; assay type: in vivo, human
From the text: as §1

[3] = tested on: cholestasis induced by BDL; experiment: BDL mice: serum biochemistry (ALT, total bilirubin); assay type: in vivo; settings: for Serum ALT / Serum Total Bilirubin: n = 8
Experimental: Sample Collection: For serum samples, non-fasting blood was collected in serum separate tubes without anticoagulant through direct cardiac puncture and centrifuged at 3,500×g for 4 minutes at 4° C. The supernatant was collected and stored at −80° C. for biochemistry (30 μL) and shipping (all the remaining). For liver samples, left lateral lobe was collected and cut into 6 pieces. Two pieces of left lateral lobe were fixed in Bouin's solution and then embedded in paraffin. Samples were stored at room temperature for histological analysis. The other 2 pieces of left lateral lobe were embedded in O.C.T. compound and quick frozen in liquid nitrogen. Samples were stored at −80° C. The remaining pieces of left lateral lobe was snap frozen in liquid nitrogen and stored at −80° C. for gene expression analyses. Right medial lobe, left medial lobe, right lobe and caudate lobe were snap frozen in liquid nitrogen and stored at −80° C. for shipping.

NAFLD patients [4] = experiment: Phase IIa study in NAFLD patients: metabolic and glycemic parameters; assay type: in vivo, human
Experimental: as §1
HOMA-IR/Adipo-IR: HOMA-IR/Adipo-IR levels are a method of measuring insulin resistance. HOMA-IR is calculated by multiplying fasting plasma insulin (FPI) by fasting plasma glucose (FPG), then dividing by the constant 405. Adipo-IR is calculated by multiplying fasting non-esterified fatty acids (NEFA)×fasting insulin. Blood samples were taken to assess HOMA-IR and Adipo-IR at Visit 2/Baseline, Visit 3/Week 2, Visit 4/Week 4, Visit 6/Week 8, Visit 8/Week 12, Visit 10/Week16 and Follow up Visit 11/Week 20. All subjects were required to have been fasted for a minimum of 8 hours prior to blood sampling. If subjects had not fasted for a minimum of 8 hours, the duration of fasting time was recorded, and subjects encouraged to fast appropriately for the next clinical visit.
(§2) Exploratory analysis: The exploratory analysis included analysis of lipid and metabolic parameters including total cholesterol, triglycerides, very low-density lipoprotein cholesterol (VLDL-C), low density lipoprotein cholesterol (LDL-C), high density lipoprotein cholesterol (HDL-C), non-high-density lipoprotein cholesterol (non-HDL-C), remnant-like particle cholesterol (RLP-C), fasting glucose, insulin, free fatty acids and hemoglobin A1C (HbA1C). Additional exploratory analysis included high throughput lipidomics and proteomics.

NAFLD patients [5] = experiment: Phase IIa study in NAFLD patients: lipid profile and lipidomics; assay type: in vivo, human; settings: for Triglycerides (median placebo-corrected % change from baseline): 2 g
Experimental: as §1
Clinical Laboratory Safety Tests: Safety tests were performed for hematology, serum biochemistry, coagulation, lipid profile, and urinalysis: Blood and urine samples were taken as per the Study Flow Chart in Table 19 for routine hematology, serum biochemistry, coagulation and urinalysis tests, along with a Lipid Profile. All samples were analyzed in the central laboratory. All subjects were fasted for a minimum of 8 hours prior to blood sampling. If subjects had not fasted for a minimum of 8 hours, the duration of fasting time was recorded, and subjects encouraged to fast appropriately for the next clinical visit. • Hematology: Full blood count to include red cell count, hemoglobin, hematocrit, white cell count, differential white cell count, platelet count and reticulocyte count. • Serum biochemistry: Urea (blood urea nitrogen; BUN), creatinine, uric acid, total bilirubin, Indirect and Direct Bilirubin, sodium, bicarbonate potassium, phosphorus, calcium chloride, alkaline phosphatase (ALP), aspartate aminotransferase (AST), alanine aminotransferase (ALT), ALT/AST ratio, lactate dehydrogenase (LDH), creatine phosphokinase (CPK), albumin, total protein, cholesterol, triglycerides, glucose, C-reactive protein (CRP). • Coagulation: prothrombin time (PT), international normalized ratio (INR) and activated partial […]. • Lipid Profile: LDL, HDL, and VLDL-C. • Urinalysis: pH, protein, glucose, blood, ketones, leukocytes, leukocyte esterase, bilirubin, specific gravity, urobilinogen and nitrate. Reflex micro if blood, protein, leukocyte esterase or nitrate/nitrite are present.
as §2

[6] = 50 mg/kg PO QD Day 0-13, Day 14, mean ± SD
[7] = 250 mg/kg PO QD Day 0-13, Day 14, mean ± SD
[8] = 500 mg/kg PO QD Day 0-13, Day 14, mean ± SD
[9] = 1 g or 2 g per day, baseline to Week 16 vs placebo

15-HEPE [DS102] was tested, and the “hepatic fat content as assessed by CAP” value (NAFLD patients [1]) was “reduced”, the “Death, patients n” value (NAFLD patients [2]; 1 g (n = 32)) was 0 and the “Patients with ≥1 AE related to study drug, %” value (NAFLD patients [2]; 1 g (n = 32)) was “(6.3) %”. The “Patients with ≥1 AE, %” value (NAFLD patients [2]; 1 g (n = 32)) was “(59.4) %”, the “Death, patients n” value (NAFLD patients [2]; 2 g (n = 30)) was 0 and the “Patients with ≥1 AE related to study drug, %” value (NAFLD patients [2]; 2 g (n = 30)) was “(10.0) %”. The “Patients with ≥1 AE, %” value (NAFLD patients [2]; 2 g (n = 30)) was “(50.0) %”, the “Patients with ≥1 SAE, %” value (NAFLD patients [2]; 2 g (n = 30)) was “(3.3) %” and the “drug related serious adverse events (SAEs)” value (NAFLD patients [2]; NAFLD patients, 1 g or 2 g per day, 16 weeks) was “no drug related serious adverse events”. For the same substance, the safety and tolerance (NAFLD patients [2]; NAFLD patients, 1 g or 2 g per day, 16 weeks, compared to placebo) was “safe and well tolerated”, the “Serum ALT” value [3, 6] was 402 ± 112 U/L and the “Serum Total Bilirubin” value [3, 6] was 26.8 ± 6.9 mg/dL. The “Serum ALT” value [3, 7] was 351 ± 155 U/L, the “Serum Total Bilirubin” value [3, 7] was 23.5 ± 9.8 mg/dL and the “Serum ALT” value [3, 8] was 383 ± 147 U/L. For the same substance, the “Serum Total Bilirubin” value [3, 8] was 26.2 ± 6.1 mg/dL, the “serum ALT level vs Vehicle group” value ([3]; 50, 250 and 500 mg/kg PO QD) was “no significant differences” and the “serum total bilirubin level vs Vehicle group” value ([3]; 50, 250 and 500 mg/kg PO QD) was “no significant differences”. For the same substance, the “insulin sensitivity and glycemic control” value (NAFLD patients [4]; 1 g or 2 g per day, 16 weeks) was “improvement”, the “markers of metabolic overload” value (NAFLD patients [4]; 1 g or 2 g per day, 16 weeks) was “statistically significant reduction” and the “insulin resistance indices (HOMA-IR and adipo-IR levels)” value (NAFLD patients [4]; 1 g or 2 g per day, Week 16) was “improvement”. The “HbA1c levels / glycemic control” value (NAFLD patients [4]; [9]) was “clinically significant improvements”, the “insulin, glucose, and free fatty acid levels” value (NAFLD patients [4]; [9]) was “reduction” and the “insulin resistance indices (HOMA-IR and adipo-IR levels)” value (NAFLD patients [4]; 2 g per day, Week 16, Per Protocol Set) was “significant improvements”. The “Triglycerides (median placebo-corrected % change from baseline)” value (NAFLD patients [5]; Week 16, Full Analysis Set) was −40.2%, the “Triglycerides (median placebo-corrected % change from baseline)” value (NAFLD patients [5]; Week 16, Subgroup: High Triglycerides (>200 mg/dL)) was −20.4% and the “Triglycerides (median placebo-corrected % change from baseline)” value (NAFLD patients [5]; Week 16, Subgroup: Triglycerides > Upper Limit Normal (>150 mg/dL)) was −39.0%. For the same substance, the “levels of multiple glycerophospholipid groups” value (NAFLD patients [5]; NAFLD patients, 2 g per day) was “significantly increased”, the “levels of multiple hepatotoxic diglycerides” value (NAFLD patients [5]; NAFLD patients, 2 g per day) was “significantly decreased” and the triglyceride levels (NAFLD patients [5]; NAFLD patients, Week 16) was “lowered”. The “lipid profile (total cholesterol, VLDL-C, non-HDL-C, RLP cholesterol, triglycerides)” value (NAFLD patients [5]; NAFLD patients, Week 16, safety analysis set) was “significantly improved”.
